Measured values: US20150335696A1, “METHODS OF DEGRADING AGEs AND USES THEREOF” (ARKRAY, Inc., priority 2014, published 2015)

Test: AGEs-degrading activity: cleavage of AGEs crosslink model substance PPD, released benzoic acid measured by HPLC
Type: biochemical
Procedure: In the present example, AGEs-degrading activities of plant extracts were evaluated with 1-phenyl-1,2-propanedione (PPD) as an index.
The AGEs-degrading activity was evaluated by measuring the cleavage reaction of crosslinks in AGEs. Specifically, the evaluation was carried out in the following manner on the basis of the method described in Vasan et al. (Vasan S, et al., An agent cleaving glucose-derived protein crosslinks in vitro and in vivo. 1996. Nature; 382: pp. 275-278).
As a model substance for crosslinks in AGEs, 1-phenyl-1,2-propanedione (PPD) was used. A degradation reaction was caused by each extract sample with PPD as a substrate. More specifically, a reaction solution having the following composition was obtained by mixing the components in an Eppendorf tube, and the resultant mixture was incubated at 37° C. for 8 hours (n=3). […] The amount of benzoic acid released by the degradation of PPD in the supernatant was measured by HPLC carried out under the following conditions. Also, the amount of benzoic acid inherently contained in the extract sample was measured by HPLC carried out under the same conditions. Furthermore, as a positive control regarding the cleavage of crosslinks, the amount of released benzoic acid was measured in the same manner, except that 500 μL of 10 mmol/L phenacylthiazolium bromide (PTB) was used instead of the extract sample. […]

**Q.** Which results are given for `O=C(C[n+]1ccsc1)c1ccccc1.[Br-]` [PTB, phenacylthiazolium bromide]?
**A.** Relative activity Mean ± SD (%) (AGEs crosslink cleavage ratio relative to positive control PTB = 100%): 100.0%; AGEs crosslink cleavage ratio Mean ± SD (%) (PPD substrate, 37° C. for 8 hours, n=3, molar benzoic acid produced / molar PPD (B/P)): 38.2 ± 0.7%
